Results as given in paper PMC7914897, “Cytotoxic Potential of a-Azepano- and 3-Amino-3,4-SeCo-Triterpenoids” (International Journal of Molecular Sciences, 2021).

Legend:
SNB-75 (CNS cancer) = assay: NCI-60 screen (SRB, 48 h); conditions: Homo sapiens
CNS cancer subpanel = assay: NCI-60 screen, subpanel; conditions: Homo sapiens
SN12C (Renal cancer) = assay: NCI-60 screen (SRB, 48 h); conditions: Homo sapiens
Melanoma subpanel = assay: NCI-60 screen, subpanel; conditions: Homo sapiens
[1] = test system: NCI-H322M (NSC lung cancer); assay: NCI-60 screen (SRB, 48 h); conditions: Homo sapiens
UACC-257 (Melanoma) = assay: NCI-60 screen (SRB, 48 h); conditions: Homo sapiens
M14 (Melanoma) = assay: NCI-60 screen (SRB, 48 h); conditions: Homo sapiens
SNB-19 (CNS cancer) = assay: NCI-60 screen (SRB, 48 h); conditions: Homo sapiens
COLO 205 (Colon cancer) = assay: NCI-60 screen (SRB, 48 h); conditions: Homo sapiens
[2] = test system: NCI-H226 (NSC lung cancer); assay: NCI-60 screen (SRB, 48 h); conditions: Homo sapiens
[3] = test system: NIH 3T3 (non-malignant mouse fibroblasts); assay: SRB cytotoxicity assay, 72 h; format: cell-based; conditions: Mus musculus, NIH3T3; NIH 3T3, 72 h, cut-off 30 µM; read-out: EC50
Procedure: The cytotoxicity of compounds 1–20 was evaluated by means of a colorimetric sulforhodamine B (SRB) assay. For all compounds, the EC50 values were determined for the human tumor cell lines A375 (malignant melanoma), HT29 (colorectal carcinoma), MCF-7 (breast carcinoma), A2780 (ovarian carcinoma), FaDu (hypopharyngeal carcinoma), and NIH 3T3 (non-malignant mouse fibroblasts).
In short, exponentially growing cells were seeded into 96-well plates on day 0 at the appropriate cell densities to prevent confluence of the cells during the period of experiment. After 24 h, the cells were treated with serial dilutions of the compounds (0–30 µM) for 72 h. The final concentration of DMSO never exceeded 0.5%, which was non-toxic to the cells. After a 72 h treatment, the supernatant medium from the 96-well plates was discarded, and the cells were fixed with 10% TCA. For a thorough fixation, the plates were allowed to rest at 4 °C. After fixation, the cells were washed in a strip washer. The washing was done four times with water using alternate dispensing and aspiration procedures. The plates were then dyed with 100 µL of 0.4% SRB for about 20 min. After dying, the plates were washed with 1% acetic acid to remove the excess of the dye and allowed to air-dry overnight. Tris base solution (200 µL, 10 mM) was added to each well and absorbance was measured at λ = 570 nm (using a 96 well plate reader, Tecan Spectra, Crailsheim, Germany). The percentages of surviving cells relative to untreated controls were determined.

MCF7 (Breast cancer) = assay: NCI-60 screen (SRB, 48 h); conditions: Homo sapiens
ACHN (Renal cancer) = assay: NCI-60 screen (SRB, 48 h); conditions: Homo sapiens
MALME-3M (Melanoma) = assay: NCI-60 screen (SRB, 48 h); conditions: Homo sapiens
HCT-116 (Colon cancer) = assay: NCI-60 screen (SRB, 48 h); conditions: Homo sapiens
OVCAR-5 (Ovarian cancer) = assay: NCI-60 screen (SRB, 48 h); conditions: Homo sapiens
[4] = test system: MDA-MB-31/ATCC (Breast cancer); assay: NCI-60 screen (SRB, 48 h); conditions: Homo sapiens
SW-620 (Colon cancer) = assay: NCI-60 screen (SRB, 48 h); conditions: Homo sapiens
A498 (Renal cancer) = assay: NCI-60 screen (SRB, 48 h); conditions: Homo sapiens
SF-295 (CNS cancer) = assay: NCI-60 screen (SRB, 48 h); conditions: Homo sapiens
HOP-92 (NSC lung cancer) = assay: NCI-60 screen (SRB, 48 h); conditions: Homo sapiens
HCT-15 (Colon cancer) = assay: NCI-60 screen (SRB, 48 h); conditions: Homo sapiens
HCC-2998 (Colon cancer) = assay: NCI-60 screen (SRB, 48 h); conditions: Homo sapiens

Molecule `C=C(C)C1CCC2(CO)CCC3(C)C(CCC4C5(C)CCCNC(C)(C)C5CCC43C)C12` (centres unmarked) [Compound 1, Azepanobetulin] has a GI50 (SNB-75 (CNS cancer); SNB-75) of 1.54 µM, an IC (TGI) (SNB-75 (CNS cancer); SNB-75, 48 h, read-out: TGI) of 2.91 µM and a CC50 (SNB-75 (CNS cancer); SNB-75, read-out: LC50) of 5.5 µM. It also gave an IC (TGI) (CNS cancer subpanel; 48 h, read-out: TGI MG_MID) of 3.15 µM, a GI50 (CNS cancer subpanel; read-out: GI50 MG_MID) of 1.65 µM and a CC50 (CNS cancer subpanel; read-out: LC50 MG_MID) of 5.98 µM. For the same molecule, the GI50 (SN12C (Renal cancer)) was 1.62 µM, the IC (TGI) (SN12C (Renal cancer); 48 h, read-out: TGI) was 3.03 µM and the CC50 (SN12C (Renal cancer); read-out: LC50) was 5.69 µM. The IC (TGI) (Melanoma subpanel; 48 h, read-out: TGI MG_MID) was 3.19 µM, the GI50 (Melanoma subpanel; read-out: GI50 MG_MID) was 1.64 µM and the CC50 (Melanoma subpanel; read-out: LC50 MG_MID) was 6.12 µM. For the same molecule, the GI50 [1] was 1.63 µM, the IC (TGI) ([1]; 48 h, read-out: TGI) was 3.03 µM and the CC50 ([1]; read-out: LC50) was 5.64 µM. It also gave a GI50 (UACC-257 (Melanoma); UACC-257) of 1.95 µM, an IC (TGI) (UACC-257 (Melanoma); UACC-257, 48 h, read-out: TGI) of 3.73 µM and a CC50 (UACC-257 (Melanoma); UACC-257, read-out: LC50) of 7.14 µM. It also gave a GI50 (M14 (Melanoma); M14) of 1.58 µM, an IC (TGI) (M14 (Melanoma); M14, 48 h, read-out: TGI) of 3.13 µM and a CC50 (M14 (Melanoma); M14, read-out: LC50) of 6.19 µM. It also gave a GI50 (SNB-19 (CNS cancer); SNB-19) of 1.75 µM, an IC (TGI) (SNB-19 (CNS cancer); SNB-19, 48 h, read-out: TGI) of 3.2 µM and a CC50 (SNB-19 (CNS cancer); SNB-19, read-out: LC50) of 5.86 µM. It also gave a GI50 (COLO 205 (Colon cancer); COLO 205) of 1.54 µM, an IC (TGI) (COLO 205 (Colon cancer); COLO 205, 48 h, read-out: TGI) of 3.24 µM and a CC50 (COLO 205 (Colon cancer); COLO 205, read-out: LC50) of 6.82 µM. For the same molecule, the GI50 ([2]; NCI-H226) was 1.98 µM, the IC (TGI) ([2]; NCI-H226, 48 h, read-out: TGI) was 4.09 µM and the CC50 ([2]; NCI-H226, read-out: LC50) was 8.43 µM. The EC50 [3] was 1.6 ± 0.4 µM, the GI50 (MCF7 (Breast cancer); MCF7) was 1.29 µM and the IC (TGI) (MCF7 (Breast cancer); MCF7, 48 h, read-out: TGI) was 2.77 µM. It also gave a CC50 (MCF7 (Breast cancer); MCF7, read-out: LC50) of 5.94 µM, a GI50 (ACHN (Renal cancer)) of 1.7 µM and an IC (TGI) (ACHN (Renal cancer); 48 h, read-out: TGI) of 3.09 µM. For the same molecule, the CC50 (ACHN (Renal cancer); read-out: LC50) was 5.61 µM, the GI50 (MALME-3M (Melanoma)) was 1.5 µM and the IC (TGI) (MALME-3M (Melanoma); 48 h, read-out: TGI) was 3.05 µM. The CC50 (MALME-3M (Melanoma); read-out: LC50) was 6.18 µM, the GI50 (HCT-116 (Colon cancer); HCT-116) was 1.29 µM and the activity at 10 µM (HCT-116 (Colon cancer); HCT-116, 48 h, read-out: Growth % of the Most Sensitive Cell Lines) was -79%. The IC (TGI) (HCT-116 (Colon cancer); HCT-116, 48 h, read-out: TGI) was 2.63 µM, the CC50 (HCT-116 (Colon cancer); HCT-116, read-out: LC50) was 5.38 µM and the GI50 (OVCAR-5 (Ovarian cancer); OVCAR-5) was 1.51 µM. The IC (TGI) (OVCAR-5 (Ovarian cancer); OVCAR-5, 48 h, read-out: TGI) was 2.89 µM, the CC50 (OVCAR-5 (Ovarian cancer); OVCAR-5, read-out: LC50) was 5.52 µM and the GI50 [4] was 1.77 µM. It also gave an IC (TGI) ([4]; 48 h, read-out: TGI) of 3.21 µM, a CC50 ([4]; read-out: LC50) of 5.8 µM and a GI50 (SW-620 (Colon cancer); SW-620) of 1.81 µM. For the same molecule, the IC (TGI) (SW-620 (Colon cancer); SW-620, 48 h, read-out: TGI) was 3.41 µM, the CC50 (SW-620 (Colon cancer); SW-620, read-out: LC50) was 6.44 µM and the GI50 (A498 (Renal cancer); A498) was 2.17 µM. The IC (TGI) (A498 (Renal cancer); A498, 48 h, read-out: TGI) was 5.63 µM, the CC50 (A498 (Renal cancer); A498, read-out: LC50) was 33 µM and the GI50 (SF-295 (CNS cancer); SF-295) was 1.66 µM. For the same molecule, the IC (TGI) (SF-295 (CNS cancer); SF-295, 48 h, read-out: TGI) was 3.13 µM, the CC50 (SF-295 (CNS cancer); SF-295, read-out: LC50) was 5.9 µM and the GI50 (HOP-92 (NSC lung cancer); HOP-92) was 1.73 µM. It also gave an IC (TGI) (HOP-92 (NSC lung cancer); HOP-92, 48 h, read-out: TGI) of 3.33 µM, a CC50 (HOP-92 (NSC lung cancer); HOP-92, read-out: LC50) of 6.42 µM and a GI50 (HCT-15 (Colon cancer); HCT-15) of 1.39 µM. It also gave an IC (TGI) (HCT-15 (Colon cancer); HCT-15, 48 h, read-out: TGI) of 2.77 µM, a CC50 (HCT-15 (Colon cancer); HCT-15, read-out: LC50) of 5.52 µM and a GI50 (HCC-2998 (Colon cancer); HCC 2998) of 1.51 µM. It also gave an IC (TGI) (HCC-2998 (Colon cancer); HCC 2998, 48 h, read-out: TGI) of 2.93 µM and a CC50 (HCC-2998 (Colon cancer); HCC 2998, read-out: LC50) of 5.68 µM.
